Legend:
[1] = DPPH radical scavenging assay; conditions: positive controls, each time point and concentration (0.03 and 0.06 mg/mL)
Protocol: Briefly, the compounds were dissolved at a concentration of 1 mg/mL in absolute methanol, and a dilution was prepared. […] Then, 100 µL of the DPPH solution was added to 100 µL of the compounds’ solution to a final concentration of 0.03 mg/mL or 0.06 mg/mL, and the decolorization of the purple radical to the yellowish reduced form was followed by recording the absorbance at 517 nm. Ascorbic acid (Asc) and Trolox were used as positive controls. Both of them, Asc and Trolox, were purchased from Sigma-Aldrich. Determinations were recorded at eight different time intervals from 0 to 120 min on a BioTeck PowerWave XS spectrophotometer, and the data were collected using KCJunior version 1.41. software. All the measurements were carried out in triplicate. Results are expressed as the percentage of the radical scavenged, calculated using the following formula: % DPPH radical scavenging = [(Acontrol − Asample)/Acontrol] × 100, wherein Acontrol refers to the absorbance of the negative control and Asample refers to the absorbance of the tested compounds.

HT-29 colon cancer cells = test system: HT-29 colon cancer cells; parameters: method as in PMID 26750401, PMID 32987314, PMID 33799070, PMID 36257283; conditions: MTT; parent NSAIDs for reference, some values obtained from the literature; cited from earlier work
[2] = test system: HCT-116 colon cancer cells; parameters: method as in PMID 26750401, PMID 32987314, PMID 33799070, PMID 36257283; conditions: MTT; parent NSAIDs for reference, some values obtained from the literature; cited from earlier work
[3] = test system: DU-145 prostate cancer cells; parameters: method as in PMID 26750401, PMID 32987314, PMID 33799070, PMID 36257283; conditions: MTT; parent NSAIDs for reference, some values obtained from the literature; cited from earlier work
[4] = test system: PC-3 prostate cancer cells; parameters: method as in PMID 26750401, PMID 32987314, PMID 33799070, PMID 36257283; conditions: MTT; parent NSAIDs for reference, some values obtained from the literature; cited from earlier work
[5] = test system: MDA-MB-231 breast cancer cells; parameters: method as in PMID 26750401, PMID 32987314, PMID 33799070, PMID 36257283; conditions: MTT; parent NSAIDs for reference, some values obtained from the literature; cited from earlier work
[6] = test system: T-47D breast cancer cells; parameters: method as in PMID 26750401, PMID 32987314, PMID 33799070, PMID 36257283; conditions: MTT; parent NSAIDs for reference, some values obtained from the literature; cited from earlier work
H1299 lung cancer cells = test system: H1299 lung cancer cells; parameters: method as in PMID 26750401, PMID 32987314, PMID 33799070, PMID 36257283; conditions: MTT; parent NSAIDs for reference, some values obtained from the literature; cited from earlier work
A549 lung cancer cells = test system: A549 lung cancer cells; parameters: method as in PMID 26750401, PMID 32987314, PMID 33799070, PMID 36257283; conditions: MTT; parent NSAIDs for reference, some values obtained from the literature; cited from earlier work

SMILES	DPPH radical scavenging activity [1]	IC50 (HT-29 colon cancer cells) [µM]	IC50 [2] [µM]	IC50 [3] [µM]	IC50 [4] [µM]	IC50 [5] [µM]	IC50 [6] [µM]	IC50 (H1299 lung cancer cells) [µM]	IC50 (A549 lung cancer cells) [µM]
O=C1O[C@H]([C@@H](O)CO)C(O)=C1O [Asc, Ascorbic acid, reference compound]	maximal scavenging activity								
CC(C)Cc1ccc(C(C)C(=O)O)cc1 (stereo not shown) [Ibup, ibuprofen]		> 50	> 50	> 50	> 50	> 50	> 50	> 50	> 50
COc1ccc2c(c1)c(CC(=O)O)c(C)n2C(=O)c1ccc(Cl)cc1 [Ind, indomethacin]		> 50	> 50	> 50	> 50	> 50	> 50	> 50	> 50
CC(C(=O)O)c1cccc(C(=O)c2ccccc2)c1 (stereo not shown) [Ket, ketoprofen]		> 50	> 50	> 50	> 50	> 50	> 50	> 50	> 50
COc1ccc2cc([C@H](C)C(=O)O)ccc2c1 [Nap, naproxen]		> 50	> 50	> 50	> 50	> 50	> 50	> 50	> 50
Cc1c(C)c2c(c(C)c1O)CCC(C)(C(=O)O)O2 (stereo not shown) [Trolox, reference compound]	maximal scavenging activity								
